# Where two headings read alike, the source gives them in different places.
# Legend:
# [1] = tested on: human endometrial stromal (HIESC) cells; assay: PGF2α and PGE2 production and enzyme expression in endometrial stromal HIESC cells stimulated with IL-1β (ELISA, Western blot); format: cell-based; details: for PGE2 production in presence of PG receptor antagonist: IL-1β-stimulated stromal HIESC; for IC50: Homo sapiens, stromal HIESC cells stimulated by IL-1β, ELISA, range in brackets
# [2] = tested on: human endometrial epithelial (HIEEC) cells; assay: PGF2α and PGE2 production and enzyme expression in endometrial epithelial HIEEC cells stimulated with IL-1β (ELISA, Western blot); format: cell-based; details: for IC50: Homo sapiens; for PGF2α production / expression of PGF2α biosynthetic enzymes (AKR1B1, COX-1, COX-2): increasing doses of cytokine, HIEEC
# Method: (§1) Western blot analysis was performed with approximately 20 μg total proteins from cultured cells on a 10% SDS-PAGE gel, followed by electro-transfer onto nitrocellulose membrane. The primary antibodies used for the present study were rabbit AKR1B1 (dilution 1:1000) and COX-2 (dilution 1:10 000) anti-sera and goat AKR1C3 (dilution 1:500) anti-serum. A β-actin monoclonal antibody (1:5000, Sigma, Mississauga, Ontario, Canada) was used as an internal control. Goat anti-rabbit IgG conjugated with horseradish peroxidase (HRP) (Jackson Immunoresearch Laboratories, West Grove, Pa., USA), rabbit anti-goat IgG HRP and goat anti-mouse IgG HRP were used as secondary antibodies. Chemiluminescence was analyzed with autoradiography films at optimal times of exposure following treatment of the membranes with Renaissance™ reagent (NEN Life Science Products, Boston, Mass., USA).
# (§2) For cell culture transfection, immortalized human endometrial stromal cells (HIESC-2) and epithelial cells(HIEEC-22) were cultured in RPMI 1640 without phenol red, containing 50 IU penicillin-streptomycin supplemented with 10% whole fetal bovine serum (FBS). Ten percent dextran-coated charcoal-extracted FBS was used once cells have reached confluency. Knock-down and knock-in transfections of cells with AKR1B1 specific siRNA, AKR1B1 or AKRIC3 cDNAs in pCR3.1 expression vectors were performed with Lipofectamine™ 2000 for 4 hours in culture medium without antibiotic. Thirty-six hours after transfection (24 hours for siRNA transfection), cells were treated for 24 hours with recombinant human interleukin 1β (IL-1β) (1 ng/ml) (R&D Systems, Minneapolis, Minn., USA) or arachidonic acid (AA) 10 μM in RPMI 1640 medium without serum. At the end of the treatment period, the culture medium was recovered and stored at −20° C. until evaluation for PGF2α production.
# (§3) Enzymatic immunoassay (EIA) was performed with an acetylcholinesterase-linked PGF2α tracer (Cayman) as described previously (Asselin et al., Biol Reprod 54(2); 371-9, 1996). Sheep anti-PGF2α (Bio-Quant, Ann Arbor, Mich., USA) was used as the selective antibody. Inter-assay and intra-assay coefficients of variations (n=12) were of 16% and 10% respectively. Statistical analysis was performed using ANOVA with Statview™ software (Abacus Concept, Calif.). Values were considered statistically significant for p<0.05.
# [3] = diabetic subjects having neuropathies; cited from earlier work
# [4] = tested on: primary human umbilical vein endothelial cells (HUVEC); assay: Effect of IL-1β and TNF-α on PGF2α, COX-2 and AKR1B1 in primary HUVEC; format: cell-based; details: for PGF2α production: ELISA; for COX-2 protein expression: endogenous AKR1B1 levels already high
# Source text: FIG. 22 comprises FIGS. 22A and 22B, with FIG. 22A illustrating the effect of IL-1β and TNF-α on the production of PGF2α by primary human umbilical vein endothelial cells (HUVEC), as measured by ELISA; and FIG. 22B illustrating the effect of IL-1β and TNF-α on the protein expression of COX-2 and AKR1B1 in primary HUVEC.
# [5] = tested on: primary human umbilical artery smooth muscle cells (HUASMC); assay: Effect of IL-1β on PGF2α, COX-2 and AKR1B1 in primary HUASMC; format: cell-based
# Source text: FIG. 20 comprises FIGS. 20A and 20B, with FIG. 20A illustrating the effect of IL-1β on the production of PGF2α by primary human umbilical artery smooth muscle cells (HUASMC), as measured by ELISA; and FIG. 20B illustrating the effect of IL-1β on the protein expression of COX-2 and AKR1B1 in primary HUASMC.
# [6] = tested on: primary human umbilical vein smooth muscle cells (HUVSMC); assay: Effect of IL-1β on PGF2α, COX-2 and AKR1B1 in primary HUVSMC; format: cell-based
# Source text: FIG. 21 comprises FIGS. 21A and 21B, with FIG. 21A illustrating the effect of IL-1β on the production of PGF2α by primary human umbilical vein smooth muscle cells (HUVSMC), as measured by ELISA; and FIG. 21B illustrating the effect of IL-1β on the protein expression of COX-2 and AKR1B1 in primary HUVSMC.
# [7] = tested on: human primary cardiomyocytes; assay: Effect of IL-1β and TNF-α on PGF2α, COX-2 and AKR1B1 in human primary cardiomyocytes (ELISA, Western blot); format: cell-based; details: for PGF2α production: FIG. 19, ELISA; for AKR1B1 and COX-2 protein expression: FIG. 19, Western blot
# Source text: FIG. 19 comprises FIG. 19A, 19B, 19C and 19D, and illustrates the effect of IL-1β and TNF-α on the production of PGF2α (A), COX-2 (B) and AKR1B1 (C) by human primary cardiomyocytes, as measured by ELISA and Western blot. FIG. 19D illustrates β-actin levels of the three cells groups.
# [8] = tested on: human endometrial stromal (HIESC) cells; assay: PGF2α and PGE2 production and enzyme expression in endometrial stromal HIESC cells stimulated with IL-1β (ELISA, Western blot); format: cell-based; details: increasing doses of cytokine
# Method: as §1, §2, §3
# [9] = tested on: macrophages; details: macrophages treated with endotoxines or lipopolysaccharides; cited from earlier work
# [10] = target: T1, AKR1B1 (Homo sapiens, UniProt P15121); assay: Effect of ASA / COX inhibitors on AKR1B1 expression and PGF synthase activity in cells expressing AKR1B1; format: cell-based
# T1 construct: endogenous in cells; host or cells: 'our cellular model'
# Method: as §1
# [11] = read-out: IC50 PGF2α production
# [12] = HIEEC cells stimulated by IL-1β, ELISA, range in brackets, read-out: IC50 PGE2 production
# [13] = HIEEC cells treated with IL-1β, ELISA, range in brackets, read-out: IC50 PGF2α production
compound,measurement,setting,value
O=C(O)CCC/C=C\C[C@@H]1[C@@H](/C=C/[C@H](O)C2Cc3ccccc3C2)[C@@H](F)C[C@@H]1O [AL8810],PGE2 production in presence of PG receptor antagonist,[1],induced a reduction in PGE2 production
same,PGE2 production in presence of PG receptor antagonist,[1]; listed as AL 8810,reduced PGE2 production
same,PGE2 production in presence of PG receptor antagonist,[2]; IL-1β-stimulated epithelial HIEEC,induced a reduction in PGE2 production
CS(=O)(=O)Nc1ccc([N+](=O)[O-])cc1OC1CCCCC1 [NS-398],inhibition of PGF2α production,"[2]; COX-1-expressing HIEEC, IL-1β",did not completely inhibited
O=C(O)Cc1nn(Cc2ccc(Br)cc2F)c(=O)c2ccccc12 [Statil™],side-effects,[3],undesirable hepatic side-effects
COc1ccc2cc([C@H](C)C(=O)O)ccc2c1 [naproxen],IC50,[1]; read-out: IC50 PGE2 production,62.6 nM
same,IC50,[1]; [11],43.8 nM
same,"inhibition of PGF2α versus PGE2 production, comparison of IC50",[1]; endometrial stromal cells (only express COX-2),comparable IC50
same,potency for inhibition of PGF2α production compared with Aspirin,[2]; HIEEC cells stimulated by IL-1β,more potent than Aspirin™
same,IC50,[2]; [12],142 nM
same,IC50,[2]; [13],4.62 nM
same,PGF2α/PGE2 ratio,[2]; at 10 nM,strong alteration of the PGF2α/PGE2 ratio in favor of PGE2
same,inhibits PGF2α more efficiently than PGE2,[2]; endometrial epithelial cells (express COX-1 and COX-2),100 times
IL-1β: recombinant human interleukin 1β,PGF2α production,[4],stimulated
same,COX-2 protein expression,[4],stimulated
same,AKR1B1 and COX-2 protein expression,[5],stimulated
same,PGF2α production,[5]; ELISA,stimulated
same,AKR1C3 protein expression level,"[2]; HIEEC-22, 1 ng/ml, Western blot",no effect
same,PGF2α production,[2],increase in PGF2α production
same,"expression of PGF2α biosynthetic enzymes (AKR1B1, COX-1, COX-2)",[2],"significant increase in expression of AKR1B1, COX-1 and COX-2"
same,AKR1B1 and COX-2 protein expression,[6],stimulated
same,PGF2α production,[6]; ELISA,stimulated
same,PGF2α production,[7],stimulated
same,AKR1B1 and COX-2 protein expression,[7],stimulated
same,PGF2α production,[8],increase in PGF2α production
same,"expression of PGF2α biosynthetic enzymes (AKR1B1, COX-1, COX-2)",[8],only of COX-2
TNF-α,PGF2α production,[4],stimulated
same,COX-2 protein expression,[4],stimulated
same,PGF2α production,[2],increase in PGF2α production
same,"expression of PGF2α biosynthetic enzymes (AKR1B1, COX-1, COX-2)",[2],"significant increase in expression of AKR1B1, COX-1 and COX-2"
same,PGF2α production,[7],stimulated
same,AKR1B1 and COX-2 protein expression,[7],stimulated
same,PGF2α production,[8],increase in PGF2α production
same,"expression of PGF2α biosynthetic enzymes (AKR1B1, COX-1, COX-2)",[8],"significant increase in expression of AKR1B1, COX-1 and COX-2"
O=C(O)Cc1nn(Cc2nc3cc(C(F)(F)F)ccc3s2)c(=O)c2ccccc12 [Zopolrestat™],side-effects,[3],undesirable hepatic side-effects
same,production levels of PGE2,[9],capable to reduce
O=C1NC(=O)[C@@]2(CCOc3ccc(F)cc32)N1 [Sorbinil™],production levels of PGE2,[9],capable to reduce
COc1ccc2c(C(=S)N(C)CC(=O)O)cccc2c1C(F)(F)F [Tolrestat™],side-effects,[3],undesirable hepatic side-effects
same,production levels of PGE2,[9],capable to reduce
"CC(=O)Oc1ccccc1C(=O)O [Aspirin, acetylsalicylic acid]",AKR1B1 gene expression,[10],blocks
same,inhibition of AKR1B1 protein,"[10]; 1-5 mM, cellular model",dose-dependent inhibition
same,PGF synthase activity,[10]; cells expressing AKR1B1,strongly reduced
same,protein expression level of AKR1B1,[10]; cells expressing AKR1B1,strongly reduced
same,IC50,[2]; [11],1940 nM
CS(=O)(=O)c1ccc(C2=C(c3ccccc3)C(=O)OC2)cc1 [rofecoxib],AKR1B1 gene expression,[10],do not influence
same,inhibits production of PGE2 more efficiently than production of PGF2α,[2]; HIEEC cells stimulated with IL-1β,ten times more efficiently
same,IC50,[2]; [12],51.7 nM
same,IC50,[2]; [13],201 nM
same,PGF2α/PGE2 ratio,[2]; at 10 μM,strong alteration of the PGF2α/PGE2 ratio in favor of PGF2α

# — patent US20130324545A1, “METHODS FOR THE REGULATION OF THE PROSTAGLANDIN F SYNTHASE (PGFS) ACTIVITY OF AKR1B1 AND USES THEREOF” (UNIVERSITE LAVAL, priority 2007, published 2013)
